Patent US20210045385A1, “PYRIDAZINONE-SUBSTITUTED KETOXIMES AS HERBICIDES” (FMC Corporation, priority 2018, published 2021)

Assays:
Type in all cases: in vivo
[1] = system: Italian ryegrass (Lolium multiflorum); assay: Test A preemergence, visual plant response rating; settings: for Ryegrass, Italian plant response rating: 125 g ai/ha, preemergence, 0 to 100 scale, 0 no effect, 100 complete control; for Ryegrass, Italian plant response rating (0 to 100 scale): 500 g ai/ha Preemergence, approx. 10 days
Summary of the method: (§1)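 Preemergence: seeds in loam/sand blend given directed soil spray of compound in non-phytotoxic solvent with surfactant. Postemergence: plants 2–10 cm, one- to two-leaf stage, sprayed with same formulation. Visual injury rated vs untreated controls after ~10 days in greenhouse, 0 (no effect) to 100 (complete control).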

[2] = system: barnyardgrass (Echinochloa crus-galli); assay: Test A preemergence, visual plant response rating; settings: for Barnyardgrass plant response rating: 125 g ai/ha, preemergence, 0 to 100 scale, 0 no effect, 100 complete control; for Barnyardgrass plant response rating (0 to 100 scale): 500 g ai/ha Preemergence, approx. 10 days
Summary of the method: as §1

[3] = system: foxtail, giant (giant foxtail, Setaria faberii); assay: Test A preemergence, visual plant response rating; settings: for Foxtail, Giant plant response rating: 125 g ai/ha, preemergence, 0 to 100 scale, 0 no effect, 100 complete control; for Foxtail, Giant plant response rating (0 to 100 scale): 500 g ai/ha Preemergence, approx. 10 days
Summary of the method: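 Ratings 0–100 (100 = complete control), visual, vs untreated controls at ~10 days. Application pre- or postemergence; solvent mixture with surfactant; loam/sand medium.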

kochia (Kochia scoparia) [4] = assay: Test A preemergence, visual plant response rating; settings: for Kochia plant response rating: 125 g ai/ha, preemergence, 0 to 100 scale, 0 no effect, 100 complete control; for Kochia plant response rating (0 to 100 scale): 500 g ai/ha Preemergence, approx. 10 days
Summary of the method: as §1

[5] = system: pigweed (Amaranthus retroflexus); assay: Test A preemergence, visual plant response rating; settings: for Pigweed plant response rating: 125 g ai/ha, preemergence, 0 to 100 scale, 0 no effect, 100 complete control; for Pigweed plant response rating (0 to 100 scale): 500 g ai/ha Preemergence, approx. 10 days
Summary of the method: as §1

[6] = system: ragweed (common ragweed, Ambrosia elatior); assay: Test A preemergence, visual plant response rating; settings: for Ragweed plant response rating: 125 g ai/ha, preemergence, 0 to 100 scale, 0 no effect, 100 complete control; for Ragweed plant response rating (0 to 100 scale): 500 g ai/ha Preemergence, approx. 10 days
Summary of the method: as §1

[7] = system: Italian ryegrass (Lolium multiflorum); assay: Test A postemergence, visual plant response rating; settings: for Ryegrass, Italian plant response rating (0 to 100 scale): 500 g ai/ha, postemergence, 0 is no effect, 100 is complete control; for Ryegrass, Italian plant response rating: Postemergence, 125 g ai/ha, 0 to 100 scale (0 no effect, 100 complete control)
Summary of the method: as §1

[8] = system: barnyardgrass (Echinochloa crus-galli); assay: Test A postemergence, visual plant response rating; settings: for Barnyardgrass plant response rating (0 to 100 scale): 500 g ai/ha, postemergence, 0 is no effect, 100 is complete control; for Barnyardgrass plant response rating: Postemergence, 125 g ai/ha, 0 to 100 scale (0 no effect, 100 complete control)
Summary of the method: as §1

[9] = system: blackgrass (Alopecurus myosuroides); assay: Test A postemergence, visual plant response rating; settings: for Blackgrass plant response rating (0 to 100 scale): 500 g ai/ha, postemergence, 0 is no effect, 100 is complete control; for Blackgrass plant response rating: Postemergence, 125 g ai/ha, 0 to 100 scale (0 no effect, 100 complete control)
Summary of the method: as §1

corn (Zea mays) = assay: Test A postemergence, visual plant response rating; settings: for Corn plant response rating (0 to 100 scale): 500 g ai/ha, postemergence, 0 is no effect, 100 is complete control; for Corn plant response rating: Postemergence, 125 g ai/ha, 0 to 100 scale (0 no effect, 100 complete control)
Summary of the method: as §1

[10] = system: foxtail, giant (giant foxtail, Setaria faberii); assay: Test A postemergence, visual plant response rating; settings: for Foxtail, Giant plant response rating (0 to 100 scale): 500 g ai/ha, postemergence, 0 is no effect, 100 is complete control; for Foxtail, Giant plant response rating: Postemergence, 125 g ai/ha, 0 to 100 scale (0 no effect, 100 complete control)
Summary of the method: as §1

[11] = system: galium (catchweed bedstraw, Galium aparine); assay: Test A postemergence, visual plant response rating; settings: for Galium plant response rating (0 to 100 scale): 500 g ai/ha, postemergence, 0 is no effect, 100 is complete control; for Galium plant response rating: Postemergence, 125 g ai/ha, 0 to 100 scale (0 no effect, 100 complete control)
Summary of the method: as §1

kochia (Kochia scoparia) [12] = assay: Test A postemergence, visual plant response rating; settings: for Kochia plant response rating (0 to 100 scale): 500 g ai/ha, postemergence, 0 is no effect, 100 is complete control; for Kochia plant response rating: Postemergence, 125 g ai/ha, 0 to 100 scale (0 no effect, 100 complete control)
Summary of the method: as §1

[13] = system: pigweed (Amaranthus retroflexus); assay: Test A postemergence, visual plant response rating; settings: for Pigweed plant response rating (0 to 100 scale): 500 g ai/ha, postemergence, 0 is no effect, 100 is complete control; for Pigweed plant response rating: Postemergence, 125 g ai/ha, 0 to 100 scale (0 no effect, 100 complete control)
Summary of the method: as §1

[14] = system: ragweed (common ragweed, Ambrosia elatior); assay: Test A postemergence, visual plant response rating; settings: for Ragweed plant response rating (0 to 100 scale): 500 g ai/ha, postemergence, 0 is no effect, 100 is complete control; for Ragweed plant response rating: Postemergence, 125 g ai/ha, 0 to 100 scale (0 no effect, 100 complete control)
Summary of the method: as §1

[15] = system: wheat (Triticum aestivum); assay: Test A postemergence, visual plant response rating; settings: for Wheat plant response rating (0 to 100 scale): 500 g ai/ha, postemergence, 0 is no effect, 100 is complete control; for Wheat plant response rating: Postemergence, 125 g ai/ha, 0 to 100 scale (0 no effect, 100 complete control)
Summary of the method: as §1

[16] = system: barnyardgrass (Echinochloa crus-galli); assay: Test B flooded paddy test, visual plant response rating; settings: 250 g ai/ha, Flood, applied to paddy water, 2-leaf stage, evaluated after 13 to 15 days
Summary of the method: (§2)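 Rice, umbrella sedge, ducksalad and barnyardgrass grown to 2-leaf stage; pots flooded 3 cm above soil and compound applied directly to paddy water, depth maintained.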

[17] = system: ducksalad (Heteranhera limosa); assay: as above; settings: 250 g ai/ha, Flood, applied to paddy water, 2-leaf stage, evaluated after 13 to 15 days
Summary of the method: as §2

rice (Oryza sativa) = assay: as above; settings: 250 g ai/ha, Flood, applied to paddy water, 2-leaf stage, evaluated after 13 to 15 days
Summary of the method: as §2

[18] = system: sedge, umbrella (small-flower umbrella sedge, Cyperus difformis); assay: as above; settings: 250 g ai/ha, Flood, applied to paddy water, 2-leaf stage, evaluated after 13 to 15 days
Summary of the method: as §2

Compound | Ryegrass, Italian plant response rating [1] | Ryegrass, Italian plant response rating (0 to 100 scale) [1] | Barnyardgrass plant response rating [2] | Barnyardgrass plant response rating (0 to 100 scale) [2] | Foxtail, Giant plant response rating [3] | Foxtail, Giant plant response rating (0 to 100 scale) [3] | Kochia plant response rating (kochia (Kochia scoparia) [4]) | Kochia plant response rating (0 to 100 scale) (kochia (Kochia scoparia) [4]) | Pigweed plant response rating [5] | Pigweed plant response rating (0 to 100 scale) [5] | Ragweed plant response rating [6] | Ragweed plant response rating (0 to 100 scale) [6] | Ryegrass, Italian plant response rating (0 to 100 scale) [7] | Ryegrass, Italian plant response rating [7] | Barnyardgrass plant response rating (0 to 100 scale) [8] | Barnyardgrass plant response rating [8] | Blackgrass plant response rating (0 to 100 scale) [9] | Blackgrass plant response rating [9] | Corn plant response rating (0 to 100 scale) (corn (Zea mays)) | Corn plant response rating (corn (Zea mays)) | also measured
CON=C(c1ccc(F)cc1C)c1c(O)c(C)nn(C)c1=O [Compound 41] | 0 | 20 | 0 | 10 | 0 | 0 | 0 | 0 | 0 | 80 | 0 | 80 | 60 | 0 | 0 | 0 | 0 | 0 | 0 | 0 | Foxtail, Giant plant response rating (0 to 100 scale) [10]: 0; Foxtail, Giant plant response rating [10]: 0; Galium plant response rating (0 to 100 scale) [11]: 70; Galium plant response rating [11]: 70; Kochia plant response rating (0 to 100 scale) (kochia (Kochia scoparia) [12]): 60; Kochia plant response rating (kochia (Kochia scoparia) [12]): 20; Pigweed plant response rating (0 to 100 scale) [13]: 90; Pigweed plant response rating [13]: 40; Ragweed plant response rating (0 to 100 scale) [14]: 60; Ragweed plant response rating [14]: 30; Wheat plant response rating (0 to 100 scale) [15]: 20; Wheat plant response rating [15]: 0; Plant response rating, Barnyardgrass (0 to 100 scale, 0 is no effect, 100 is complete control) [16]: 0; Plant response rating, Ducksalad (0 to 100 scale, 0 is no effect, 100 is complete control) [17]: 0; Plant response rating, Rice (0 to 100 scale, 0 is no effect, 100 is complete control) (rice (Oryza sativa)): 0; Plant response rating, Sedge, Umbrella (0 to 100 scale, 0 is no effect, 100 is complete control) [18]: 0
CO/N=C(\c1sccc1C)c1c(O)c(C)nn(C)c1=O [Compound 42] | 0 | 20 | 0 | 0 | 0 | 0 | 0 | 10 | 0 | 20 | 60 | 80 | 70 | 50 | 10 | 0 | 0 | 0 | 0 | 0 | Foxtail, Giant plant response rating (0 to 100 scale) [10]: 10; Foxtail, Giant plant response rating [10]: 0; Galium plant response rating (0 to 100 scale) [11]: 60; Galium plant response rating [11]: 70; Kochia plant response rating (0 to 100 scale) (kochia (Kochia scoparia) [12]): 50; Kochia plant response rating (kochia (Kochia scoparia) [12]): 20; Pigweed plant response rating (0 to 100 scale) [13]: 80; Pigweed plant response rating [13]: 60; Ragweed plant response rating (0 to 100 scale) [14]: 50; Ragweed plant response rating [14]: 40; Wheat plant response rating (0 to 100 scale) [15]: 0; Wheat plant response rating [15]: 0; Plant response rating, Barnyardgrass (0 to 100 scale, 0 is no effect, 100 is complete control) [16]: 15; Plant response rating, Ducksalad (0 to 100 scale, 0 is no effect, 100 is complete control) [17]: 20; Plant response rating, Rice (0 to 100 scale, 0 is no effect, 100 is complete control) (rice (Oryza sativa)): 10; Plant response rating, Sedge, Umbrella (0 to 100 scale, 0 is no effect, 100 is complete control) [18]: 20
